# Results as given in article PMC6815936, “A Pan-Cyclophilin Inhibitor, CRV431, Decreases Fibrosis and Tumor Development in Chronic Liver Disease Models” (The Journal of Pharmacology and Experimental Therapeutics, 2019).
# Test system: CCl4-induced liver fibrosis in C57BL/6 mice
# Assay: Carbon tetrachloride mouse model of liver fibrosis
# Format: in vivo
# Settings: OCA 10 mg/kg per day; combination 50 and 10 mg/kg per day, oral, 6 weeks
# Protocol: Carbon tetrachloride (CCl4)–induced liver fibrosis was conducted in C57BL/6J male mice starting at 7 weeks of age. Mice were injected intraperitoneally twice per week with 0.5–0.75 ml/kg CCL4 (289116; Sigma-Aldrich) and corn oil (0.05 ml total dose per mouse) for 6 weeks. CRV431, obeticholic acid (OCA, HY-12222; MedChemExpress), and vehicle were administered by daily oral gavage for the entire duration of the study. CRV431 and OCA were dissolved in a self-microemulsifying drug vehicle ([Trepanier et al., 2018]), and then diluted with PBS. CRV431 was administered at 50 mg/kg per day, and OCA was administered at 10 mg/kg per day.
# Blood and livers were collected at the end of the NASH and CCl4 studies. In some studies, serum or plasma was isolated from freshly-collected blood, whereas in other studies blood was frozen for later analysis of CRV431 concentration. Livers were immersion-fixed in zinc-formalin and paraffin-embedded for histologic processing. Liver sections were stained with hematoxylin and eosin for assessment of inflammation, ballooning, and steatosis, and with sirius red for assessment of collagen I and III (fibrosis). Sirius red staining was quantified by blinded analysis in one section per liver using ImageJ software. […]
smiles,measurement,value
"CC[C@H]1[C@@H](O)[C@@H]2[C@H](CC[C@]3(C)[C@@H]([C@H](C)CCC(=O)O)CC[C@@H]23)[C@@]2(C)CC[C@@H](O)C[C@@H]12 [OCA, obeticholic acid, reference compound]","effect on liver fibrosis, sirius red staining (in words)",no statistically significant effect
